CC50 and melting point data for 37 compounds are collected here from patent US9833423B2 (KOREA RESEARCH INSTITUTE OF CHEMICAL TECHNOLOGY, priority 2011, dated 2017).

One data set in a line: in vitro. As to conditions: human.

Values after ≈ are worked out from the molar mass of the structure shown.

Take `COc1cc(C(C)C)ccc1C1(NC(=O)OC(C)C)C(=O)c2ccccc2C1=O` [Example 62, Isopropyl 2-(4-isopropyl-2-methoxyphenyl)-1,3-dioxo-2,3-dihydro-1H-inden-2-ylcarbamate]: the melting point lay in the range of 159 to 161 °C. This compound displayed a CC50 in “in vitro” (CC50) of 11.3 µg/mL (≈ 28.5 µM).
As to `CCc1ccc(C2(O)C(=O)c3ccccc3C2=O)c(NC(C)=O)c1` [Example 88, N-(5-Ethyl-2-(2-hydroxy-1,3-dioxo-2,3-dihydro-1H-inden-2-yl)phenyl)acetamide], in “in vitro” (Picorna-virus CC50), the CC50 came to 4.49 µg/mL (≈ 13.9 µM).
Take `COc1cc(C(C)C)ccc1C1(NC(=O)c2ccccc2)C(=O)c2ccccc2C1=O` [Example 55, N-(2-(4-Isopropyl-2-methoxyphenyl)-1,3-dioxo-2,3-dihydro-1H-inden-2-yl)benzamide]: the melting point lay in the range of 106 to 108 °C. The same compound gave a CC50 in “in vitro” (CC50) of over 117 µg/mL.
Take `CC(=O)Oc1cc(-c2ccccc2)ccc1C1(OC(C)=O)C(=O)c2ccccc2C1=O` [Example 8, 4-(2-Acetoxy-1,3-dioxo-2,3-dihydro-1H-inden-2-yl)biphenyl-3-yl acetate]: the melting point was 165 to 167 °C. In the data set “in vitro” (CC50), this compound registered a CC50 of 7.91 µg/mL.
In turn, `COc1cccc(C2C(=O)c3ccccc3C2=O)c1` [Example 104, 2-(3-Methoxyphenyl)-2H-inden-1,3-dione] gave a CC50 in the data set “in vitro” (Picorna-virus CC50) of over 100 µg/mL.
The compound `CCN(CC)C(=O)Oc1cc(C(C)C)ccc1C1(O)C(=O)c2ccccc2C1=O` [Example 34, 2-(2-Hydroxy-1,3-dioxo-2,3-dihydro-1H-inden-2-yl)-5-isopropylphenyl diethylcarbamate] had a melting point of 103 to 106 °C. Besides, the CC50 in the data set “in vitro” (CC50) came to 46.2 µg/mL (≈ 117 µM).
The corresponding values for `COC(=O)NC1(c2ccc(C(C)C)cc2OC)C(=O)c2ccccc2C1=O` [Example 59, Methyl 2-(4-isopropyl-2-methoxyphenyl)-1,3-dioxo-2,3-dihydro-1H-inden-2-ylcarbamate] are 153 to 155 °C and 53.7 µg/mL (≈ 146 µM).
The corresponding values for `COC1(c2ccc(C(C)C)cc2OCc2ccccc2)C(=O)c2ccccc2C1=O` [Example 25, 2-(2-Benzyloxy-4-isopropyl-phenyl)-2-methoxy-indan-1,3-dione] are 140 to 144 °C and over 100 µg/mL.
The corresponding values for `COc1cc(C(C)C)ccc1C1(O)C(=O)c2ccc([N+](=O)[O-])c(NC(C)=O)c2C1=O` (centres unmarked) [Example 43, N-(2-Hydroxy-2-(4-isopropyl-2-methoxyphenyl)-5-nitro-1,3-dioxo-2,3-dihydro-1H-inden-4-yl)acetamide] are 199 to 201 °C and 61.7 µg/mL (≈ 150 µM).
Regarding `COc1cc(C(C)C)ccc1C1(O)C(=O)c2cccc(N)c2C1=O` (centres unmarked) [Example 41, 4-Amino-2-hydroxy-2-(4-isopropyl-2-methoxyphenyl)-2H-inden-1,3-dione], the melting point was in the range of 219 to 220 °C.
Consider `CC(=O)Oc1ccc(C(C)(C)C)cc1C1(OC(C)=O)C(=O)c2ccccc2C1=O` [Example 14, 2-(2-Acetoxy-1,3-dioxo-2,3-dihydro-1H-inden-2-yl)-4-tert-butylphenyl acetate], for which the melting point was in the range of 195 to 196 °C. Moreover, the CC50 in the data set “in vitro” (CC50) is 8.26 µg/mL.
`CCCC(=O)Nc1cc(C)c(C)cc1C1(O)C(=O)c2ccccc2C1=O` [Example 89, N-(2-(2-Hydroxy-1,3-dioxo-2,3-dihydro-1H-inden-2-yl)-4,5-dimethylphenyl)butyramide] displayed a CC50 in the data set “in vitro” (Picorna-virus CC50) of 10.7 µg/mL (≈ 30.4 µM).
Compound `COc1cc(C(C)C)ccc1C1(O)C(=O)c2ccc(N)c(NC(C)=O)c2C1=O` (centres unmarked) [Example 45, N-(5-Amino-2-hydroxy-2-(4-isopropyl-2-methoxyphenyl)-1,3-dioxo-2,3-dihydro-1H-inden-4-yl)acetamide] came in with a melting point of 124 to 131 °C. Also, the CC50 in the data set “in vitro” (CC50) was over 117 µg/mL.
`COC1(c2ccc(C(C)C)cc2O)C(=O)c2ccccc2C1=O` [Example 28, 2-(2-Hydroxy-4-isopropylphenyl)-2-methoxy-1H-inden-1,3(2H)-dione] gave a melting point of 272 to 274 °C. The CC50 in the data set “in vitro” (CC50) came out at 9.2 µg/mL (≈ 29.6 µM).
Compound `COc1cc(C(C)C)ccc1C1(O)C(=O)c2c(N)ccc(N)c2C1=O` [Example 46, 4,7-Diamino-2-hydroxy-2-(4-isopropyl-2-methoxyphenyl)-2H-inden-1,3-dione] yielded a melting point of 243 to 247 °C. In the data set “in vitro” (CC50), this compound gave a CC50 of 64 µg/mL (≈ 188 µM).
Regarding `CSc1ccc(C2(O)C(=O)c3ccccc3C2=O)cc1` [Example 58], the melting point fell in the range of 153 to 155 °C. The same compound displayed a CC50 in “in vitro” (CC50) of 47.8 µg/mL (≈ 168 µM).
The corresponding values for `CC(=O)Oc1ccc(-c2ccccc2)cc1C1(OC(C)=O)C(=O)c2ccccc2C1=O` [Example 10, 3-(2-Acetoxy-1,3-dioxo-2,3-dihydro-1H-inden-2-yl)biphenyl-4-yl acetate] are 196 to 198 °C and 7.85 µg/mL.
The corresponding values for `COc1cc(C(C)C)ccc1C1(NC(C)=O)C(=O)c2cccc(NC(C)=O)c2C1=O` (centres unmarked) [Example 67, N,N′-(2-(4-Isopropyl-2-methoxyphenyl)-1,3-dioxo-2,3-dihydro-1H-inden-2,4-diyl)diacetamide] are 241 to 243 °C and 54.6 µg/mL (≈ 134 µM).
In the data set “in vitro” (Picorna-virus CC50), `COc1cc(NC(=O)C(C)C)c(C2(O)C(=O)c3cccc(N)c3C2=O)cc1OC` (centres unmarked) [Example 107, N-[2-(4-Amino-2-hydroxy-1,3-dioxo-indan-2-yl)-4,5-dimethoxy-phenyl]-isobutyramide] had a CC50 of over 100 µg/mL.
`COc1cc(C(C)C)ccc1C1(Br)C(=O)c2cccc(NC(C)=O)c2C1=O` (centres unmarked) [Example 65, N-(2-Bromo-2-(4-isopropyl-2-methoxyphenyl)-1,3-dioxo-2,3-dihydro-1H-inden-4-yl)acetamide] had a melting point of 143 to 145 °C. For the same compound, the CC50 in the data set “in vitro” (CC50) worked out at 11.2 µg/mL (≈ 25.9 µM).
For the compound `COc1cc(C(C)C)ccc1C1(O)C(=O)c2ccc(N)c(N)c2C1=O` (centres unmarked) [Example 47, 4,5-Diamino-2-hydroxy-2-(4-isopropyl-2-methoxyphenyl)-2H-inden-1,3-dione], the melting point was in the range of 272 to 274 °C. In the data set “in vitro” (CC50), this compound registered a CC50 of 50.9 µg/mL (≈ 150 µM).
On to `COc1cc(NC(=O)C(C)C)c(C2(O)C(=O)c3cc(OC)c(OC)cc3C2=O)cc1OC` [Example 108, N-[2-(2-Hydroxy-5,6-dimethoxy-1,3-dioxo-indan-2-yl)-4,5-dimethoxy-phenyl]-isobutyramide], for which the CC50 in “in vitro” (Picorna-virus CC50) was over 100 µg/mL.
Consider `COc1cc(C(C)C)ccc1C1(N=[N+]=[N-])C(=O)c2ccccc2C1=O` [Example 52, 2-Azido-2-(4-isopropyl-2-methoxyphenyl)-2H-inden-1,3-dione], for which the melting point lay within 175 to 177 °C. Moreover, the CC50 in the data set “in vitro” (CC50) worked out at 27.7 µg/mL (≈ 82.5 µM).
`COc1cc(C(C)C)ccc1C1(NC(N)=O)C(=O)c2ccccc2C1=O` [Example 61, 1-(2,3-Dihydro-2-(4-isopropyl-2-methoxyphenyl)-1,3-dioxo-1H-inden-2-yl)urea]: the melting point is 272 to 274 °C. This compound had a CC50 in the data set “in vitro” (CC50) of over 117 µg/mL.
In the case of `Cc1cc(NC(=O)C(C)C)c(C2(O)C(=O)c3ccccc3C2=O)cc1C` [Example 90, N-(2-(2-Hydroxy-1,3-dioxo-2,3-dihydro-1H-inden-2-yl)-4,5-dimethylphenyl)isobutyramide], in the data set “in vitro” (Picorna-virus CC50), the CC50 is 38.3 µg/mL (≈ 109 µM).
In turn, `COc1cc(C(C)C)ccc1C1(O)C(=O)c2cccc([N+](=O)[O-])c2C1=O` (centres unmarked) [Example 38, 2-Hydroxy-2-(4-isopropyl-2-methoxyphenyl)-4-nitro-2H-inden-1,3-dione] showed a CC50 in the data set “in vitro” (CC50) of over 100 µg/mL.
Same read-out and setting: the value for `COc1cc(C(C)C)ccc1C1(O)C(=O)c2c(N)ccc(NC(C)=O)c2C1=O` (centres unmarked) [Example 44, N-(7-Amino-2-hydroxy-2-(4-isopropyl-2-methoxyphenyl)-1,3-dioxo-2,3-dihydro-1H-inden-4-yl)acetamide] was over 117 µg/mL.
`CC(=O)Oc1c(C2(OC(C)=O)C(=O)c3ccccc3C2=O)ccc(Cl)c1Cl` [Example 4, 6-(2-Acetoxy-1,3-dioxo-2,3-dihydro-1H-inden-2-yl)-2,3-dichlorophenyl acetate] yielded a melting point of 129 to 136 °C. In the data set “in vitro” (CC50), this compound came in with a CC50 of 50.4 µg/mL.
The compound `CSc1ccccc1C1(O)C(=O)c2ccccc2C1=O` [Example 57] showed a melting point of 191 to 193 °C. In addition, in the data set “in vitro” (CC50), the CC50 is 48.2 µg/mL (≈ 170 µM).
The like results for `CONC(=O)NC1(c2ccc(C(C)C)cc2OC)C(=O)c2ccccc2C1=O` [Example 63, 1-(2-(4-Isopropyl-2-methoxyphenyl)-1,3-dioxo-2,3-dihydro-1H-inden-2-yl)-3-methoxy urea] were, in that order, 153 to 155 °C and over 117 µg/mL.
In the case of `CCOC(=O)NC1(c2ccc(C(C)C)cc2OC)C(=O)c2ccccc2C1=O` [Example 64, Ethyl 2-(4-isopropyl-2-methoxyphenyl)-1,3-dioxo-2,3-dihydro-1H-inden-2-ylcarbamate], the melting point fell in the range of 149 to 150 °C. Further, in “in vitro” (CC50), the CC50 worked out at 87.8 µg/mL (≈ 230 µM).
Compound `CCOC(=O)Oc1cc(C(C)C)ccc1C1(OC(=O)OCC)C(=O)c2cccnc2C1=O` (centres unmarked) [Example 105, ethyl (6-(2-((ethoxycarbonyl)oxy)-4-isopropylphenyl)-5,7-dioxo-6,7-dihydro-5H-cyclopenta[b]pyridin-6-yl)carbonate] showed a CC50 in the data set “in vitro” (Picorna-virus CC50) of over 100 µg/mL.
`CC(=O)Oc1ccc(C)nc1C1(OC(C)=O)C(=O)c2ccccc2C1=O` [Example 71, 2-(2-Acetoxy-1,3-dioxo-2,3-dihydro-1H-inden-2-yl)-6-methylpyridin-3-yl acetate] gave a CC50 in the data set “in vitro” (CC50) of over 100 µg/mL.
On the same count and under the same terms, then `COc1cc(C(C)C)ccc1C1(N=[N+]=[N-])C(=O)c2cccc([N+](=O)[O-])c2C1=O` (centres unmarked) [Example 40, 2-Azido-2-(4-isopropyl-2-methoxyphenyl)-4-nitro-2H-inden-1,3-dione], with 53.2 µg/mL (≈ 140 µM); and `O=C1c2ccccc2C(=O)C1(O)c1ncc(Cl)cc1O` [Example 73, 2-(5-Chloro-3-hydroxypyridin-2-yl)-2-hydroxy-1H-inden-1,3(2H)-dione], with over 100 µg/mL.
Consider `O=C1c2ccccc2C(=O)C1(O)c1cc2ncccc2cc1O` [Example 75, 2-Hydroxy-2-(6-hydroxyquinolin-7-yl)-1H-inden-1, 3(2H)-dione], for which the CC50 in “in vitro” (CC50) is over 100 µg/mL.
Turning to `CC(=O)Nc1cc(C)c(C)cc1C1(O)C(=O)c2ccccc2C1=O` [Example 86, N-(2-(2-Hydroxy-1,3-dioxo-2,3-dihydro-1H-inden-2-yl)-4,5-dimethylphenyl)acetamide], the CC50 in the data set “in vitro” (Picorna-virus CC50) amounted to 4.63 µg/mL (≈ 14.3 µM).

The term melting point denotes the temperature, or range, at which the solid turns liquid.
